Assay results published in ChEMBL document CHEMBL6114972, “Proteolysis targeting chimera of BI-2536 induces potent dual degradation of PLK1 and BET proteins” (Bioorg Med Chem, 2025).
The source made the active and inactive calls. No cut-off for these calls is given here.

Experiments:
MDA-MB-231 = test: Cytotoxicity against human MDA-MB-231 cells assessed as reduction in cell viability measured after 3 days by CCK-8 assay; format: functional, cell-based; details: MDA-MB-231, 72 h
K562 = test: Cytotoxicity against human K562 cells assessed as reduction in cell viability measured after 3 days by CCK-8 assay; format: functional, cell-based; details: K562, 72 h
[1] = molecular target: von Hippel-Lindau disease tumor suppressor/Bromodomain-containing protein 4 (Homo sapiens) (UniProt O60885+P40337); test: Protac activity at VHL/BRD4 in human HeLa cells assessed as BRD4 degradation at 500 nM measured after 12 hrs by Western blot analysis; format: cell-based
Chain of von Hippel-Lindau disease tumor suppressor/Bromodomain-containing protein 4 (Homo sapiens) (P40337 whole entry, looked up, other chains not shown): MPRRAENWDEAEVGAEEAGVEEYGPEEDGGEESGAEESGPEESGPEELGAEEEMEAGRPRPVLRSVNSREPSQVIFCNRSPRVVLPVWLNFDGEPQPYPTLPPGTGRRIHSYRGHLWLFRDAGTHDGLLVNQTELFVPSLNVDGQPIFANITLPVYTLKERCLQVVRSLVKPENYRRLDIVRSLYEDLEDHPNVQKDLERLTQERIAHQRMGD

[2] = molecular target: von Hippel-Lindau disease tumor suppressor/Serine/threonine-protein kinase PLK1 (Homo sapiens) (UniProt P53350+P40337); test: Protac activity at VHL/PLK1 in human HeLa cells assessed as PLK1 degradation at 500 nM measured after 12 hrs by Western blot analysis; format: cell-based
Chain of von Hippel-Lindau disease tumor suppressor/Serine/threonine-protein kinase PLK1 (Homo sapiens) (P40337 whole entry, looked up): as the sequence (P40337 whole entry, looked up, other chains not shown) above
Chain of von Hippel-Lindau disease tumor suppressor/Serine/threonine-protein kinase PLK1 (Homo sapiens) (P53350 whole entry, looked up): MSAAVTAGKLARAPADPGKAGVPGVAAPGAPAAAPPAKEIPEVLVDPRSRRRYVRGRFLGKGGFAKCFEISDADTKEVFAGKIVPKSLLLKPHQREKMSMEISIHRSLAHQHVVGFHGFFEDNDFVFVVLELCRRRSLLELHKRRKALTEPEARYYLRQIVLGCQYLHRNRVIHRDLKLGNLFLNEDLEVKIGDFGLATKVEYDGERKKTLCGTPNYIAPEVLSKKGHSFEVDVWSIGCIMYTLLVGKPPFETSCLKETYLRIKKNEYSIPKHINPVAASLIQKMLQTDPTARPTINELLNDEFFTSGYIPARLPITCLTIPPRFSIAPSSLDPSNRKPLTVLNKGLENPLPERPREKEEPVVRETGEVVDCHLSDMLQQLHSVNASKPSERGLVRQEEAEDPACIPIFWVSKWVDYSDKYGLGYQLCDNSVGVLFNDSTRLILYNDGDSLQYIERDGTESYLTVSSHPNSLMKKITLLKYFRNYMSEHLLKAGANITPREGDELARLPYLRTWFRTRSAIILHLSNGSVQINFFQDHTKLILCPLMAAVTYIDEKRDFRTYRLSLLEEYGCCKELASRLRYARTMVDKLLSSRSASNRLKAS

CWR22R = test: Cytotoxicity against human 22Rv1 cells assessed as reduction in cell viability measured after 3 days by CCK-8 assay; format: functional, cell-based; details: 22Rv1, 72 h
HeLa [3] = test: Cytotoxicity against human HeLa cells assessed as reduction in cell viability measured after 3 days by CCK-8 assay; format: functional, cell-based; details: 72 h
[4] = molecular target: T1, Protein cereblon/Serine/threonine-protein kinase PLK1 (Homo sapiens, UniProt P53350+Q96SW2); test: Protac activity at CRBN/PLK1 in human 22Rv1 cells assessed as PLK1 degradation at 5 to 10 nM measured after 36 hrs by Western blot analysis; format: cell-based; details: dose 5-10 nM
T1 sequence (P53350 2-603 limits assumed): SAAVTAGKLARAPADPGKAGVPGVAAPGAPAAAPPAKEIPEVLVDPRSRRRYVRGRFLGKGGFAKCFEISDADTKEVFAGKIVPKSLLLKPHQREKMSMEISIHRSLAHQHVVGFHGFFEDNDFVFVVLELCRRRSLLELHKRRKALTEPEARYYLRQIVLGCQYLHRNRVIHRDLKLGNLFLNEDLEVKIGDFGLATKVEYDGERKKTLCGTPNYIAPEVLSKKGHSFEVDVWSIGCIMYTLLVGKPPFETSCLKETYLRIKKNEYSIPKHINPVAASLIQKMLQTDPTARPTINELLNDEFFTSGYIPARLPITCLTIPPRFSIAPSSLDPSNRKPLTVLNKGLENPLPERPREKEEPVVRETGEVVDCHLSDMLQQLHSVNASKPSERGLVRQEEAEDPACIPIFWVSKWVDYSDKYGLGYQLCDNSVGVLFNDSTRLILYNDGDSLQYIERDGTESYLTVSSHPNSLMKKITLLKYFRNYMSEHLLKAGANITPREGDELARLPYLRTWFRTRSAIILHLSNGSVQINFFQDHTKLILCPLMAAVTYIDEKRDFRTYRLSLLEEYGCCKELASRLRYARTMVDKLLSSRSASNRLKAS
T1 sequence (Q96SW2 whole entry partner): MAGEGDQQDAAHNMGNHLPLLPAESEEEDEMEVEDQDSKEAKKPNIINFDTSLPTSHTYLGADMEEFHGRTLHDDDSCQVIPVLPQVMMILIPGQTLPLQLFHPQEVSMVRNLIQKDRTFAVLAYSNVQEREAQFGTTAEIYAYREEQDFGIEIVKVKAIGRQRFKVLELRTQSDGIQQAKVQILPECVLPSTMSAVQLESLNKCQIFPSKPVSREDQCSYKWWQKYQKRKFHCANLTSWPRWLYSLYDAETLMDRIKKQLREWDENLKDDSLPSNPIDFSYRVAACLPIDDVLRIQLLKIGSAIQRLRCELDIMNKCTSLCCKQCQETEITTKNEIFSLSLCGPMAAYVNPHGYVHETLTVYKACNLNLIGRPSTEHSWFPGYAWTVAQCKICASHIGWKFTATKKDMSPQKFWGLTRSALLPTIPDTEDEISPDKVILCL

[5] = molecular target: T2, Protein cereblon/Bromodomain-containing protein 4 (Homo sapiens, UniProt O60885+Q96SW2); test: Protac activity at CRBN/BRD4 in human HeLa cells assessed as BRD4 degradation at 500 nM measured after 12 hrs by Western blot analysis; format: cell-based
T2 sequence (Q96SW2 whole entry, looked up, other chains not shown): as the sequence (Q96SW2 whole entry partner) above

[6] = molecular target: T2, Protein cereblon/Bromodomain-containing protein 4; test: Protac activity at CRBN/BRD4 in human HeLa cells assessed as BRD4 degradation at 20 nM measured after 24 hrs by Western blot analysis; format: cell-based
[7] = molecular target: T1, Protein cereblon/Serine/threonine-protein kinase PLK1; test: Protac activity at CRBN/PLK1 in human HeLa cells assessed as PLK1 degradation at 500 nM measured after 12 hrs by Western blot analysis; format: cell-based
HeLa [8] = test: Induction of degradation of BRD4 in human HeLa cells at 500 nM measured after 12 hrs by Western blot analysis; format: cell-based
HeLa [9] = test: Induction of degradation of PLK1 in human HeLa cells at 500 nM measured after 12 hrs by Western blot analysis; format: cell-based
[10] = molecular target: T1, Protein cereblon/Serine/threonine-protein kinase PLK1; test: Protac activity at CRBN/PLK1 in human 22Rv1 cells assessed as PLK1 degradation at 10 nM measured after 36 hrs by Western blot analysis; format: cell-based

Activity [1] [%]	Activity [2] [%]	Activity [4]	Activity [5] [%]	Activity [6]	Activity [7] [%]	Activity [10]	Structure (SMILES)	IC50 (MDA-MB-231) [nM]	IC50 (K562) [nM]	IC50 (CWR22R) [nM]	IC50 (HeLa [3]) [nM]	Activity (HeLa [8]) [%]	Activity (HeLa [9]) [%]
22	6						CC[C@@H]1C(=O)N(C)c2cnc(Nc3ccc(C(=O)NC4CCN(CCCCCCCC(=O)N[C@H](C(=O)N5C[C@H](O)C[C@H]5C(=O)NCc5ccc(-c6scnc6C)cc5)C(C)(C)C)CC4)cc3OC)nc2N1C1CCCC1	> 1000	527	> 1000	158		
7	0.3						CC[C@@H]1C(=O)N(C)c2cnc(Nc3ccc(C(=O)NC4CCN(CCCCCC(=O)N[C@H](C(=O)N5C[C@H](O)C[C@H]5C(=O)NCc5ccc(-c6scnc6C)cc5)C(C)(C)C)CC4)cc3OC)nc2N1C1CCCC1	> 1000	> 1000	> 1000	398		
10	0						CC[C@@H]1C(=O)N(C)c2cnc(Nc3ccc(C(=O)NC4CCN(CCCCCCC(=O)N[C@H](C(=O)N5C[C@H](O)C[C@H]5C(=O)NCc5ccc(-c6scnc6C)cc5)C(C)(C)C)CC4)cc3OC)nc2N1C1CCCC1	> 1000	> 1000	> 1000	193		

Further lines, the molecule ahead of its results:

Structure (SMILES)	Activity [1] [%]	Activity [2] [%]	Activity [4]	Activity [5] [%]	Activity [6]	Activity [7] [%]	Activity [10]	IC50 (MDA-MB-231) [nM]	IC50 (K562) [nM]	IC50 (CWR22R) [nM]	IC50 (HeLa [3]) [nM]	Activity (HeLa [8]) [%]	Activity (HeLa [9]) [%]
Cc1ncsc1-c1ccc([C@H](C)NC(=O)[C@@H]2C[C@@H](O)CN2C(=O)[C@@H](NC(=O)COCCCOCCNC(=O)C[C@@H]2N=C(c3ccc(Cl)cc3)c3c(sc(C)c3C)-n3c(C)nnc32)C(C)(C)C)cc1			inactive										
CC[C@@H]1C(=O)N(C)c2cnc(Nc3ccc(C(=O)NC4CCN(CCCCCCC(=O)Nc5cccc6c5C(=O)N(C5CCC(=O)NC5=O)C6=O)CC4)cc3OC)nc2N1C1CCCC1 (some centres not stated)				94	Active	18		489	89	48	54		
CC[C@@H]1C(=O)N(C)c2cnc(Nc3ccc(C(=O)NC4CCN(C)CC4)cc3OC)nc2N1C1CCCC1												0	0
CC[C@@H]1C(=O)N(C)c2cnc(Nc3ccc(C(=O)NC4CCN(CCCCCCCCCC(=O)N[C@H](C(=O)N5C[C@H](O)C[C@H]5C(=O)NCc5ccc(-c6scnc6C)cc5)C(C)(C)C)CC4)cc3OC)nc2N1C1CCCC1	50	8						928	66	225	52		
CC[C@@H]1C(=O)N(C)c2cnc(Nc3ccc(C(=O)NC4CCN(CCCCCCCCCC(=O)Nc5cccc6c5C(=O)N(C5CCC(=O)NC5=O)C6=O)CC4)cc3OC)nc2N1C1CCCC1 (some centres not stated)				93	Active	7		527	133	63	125		
Cc1ncsc1-c1ccc(CNC(=O)[C@@H]2C[C@@H](O)CN2C(=O)[C@@H](NC(=O)CCCCCCCCCCNC(=O)c2cc3c(cc2CS(C)(=O)=O)-c2cn(C)c(=O)c4[nH]cc(c24)CN3c2ncc(F)cc2F)C(C)(C)C)cc1							inactive						
